Source: PMC5046821 (Biochemistry, 2016)

Molecular target: Irp3 (Yersinia enterocolitica, UniProt O54512)
Experiment: X-ray crystallography, […] Å, cocrystal
Assay type: binding
Details: with NADP+; pH 7.3; active site, substrate analogue, occupancy 70-85%

## O=C(O)[C@@H]1CSC(c2csc(-c3ccccc3O)n2)=N1 [HPTT-COOH, 2′-(2-Hydroxyphenyl)-4,5-dihydro[2,4′-bisthiazole]-4-carboxylic Acid]
  X-ray crystallography, 1.28 Å, cocrystal: A holo-Irp3 structure was determined with both HPTT-COOH and NADP^+ bound.
